US20110158980A1, “METHODS TO TREAT AND SCREEN FOR AGENTS TO TREAT OBESITY” (TRUSTEES OF TUFTS COLLEGE, priority 2008, published 2011)

Tests used:
Type in all cases: cell-based
[1] = tested on: 3T3-L1 adipocytes; experiment: Oxygen uptake rate by fiber-optic microsensor; settings: phenylacetate at the higher concentration (10 mM); day 12 post-induction; FIG. 2F
Method: The dissolved oxygen in the culture medium was measured using a needle-type fiber-optic microsensor (MicroxTX3, Presens, Regensburg, Germany). The concentration data were related to the oxygen uptake rate (OUR) using the following diffusion-reaction model:
where c0 and hb are, respectively, the oxygen concentration at medium surface and height of the medium in the culture well. The bottom of the culture plate (and cell monolayer) is at z=−hb. Integrating equation (1) and applying the boundary conditions we obtain: […]
where hm and cm are, respectively, the distance between the probe and the medium surface and the measured oxygen concentration in the medium at the probe depth. The oxygen uptake rate was calculated by dividing the flux JO2 by the cell density. The measured oxygen uptake rate was used for relative comparisons between the treatment groups and not used for MFA in order to independently confirm the calculated oxygen uptake rate.

[2] = tested on: 3T3-L1 adipocytes; experiment: Metabolite assays (TG, FFA, glucose, lactate, glycerol) on cell lysates and spent medium; settings: day 12 post-induction
Method: (§1) 3T3-L1 preadipocytes were plated onto 24-well plates and expanded in preadipocyte growth medium consisting of DMEM supplemented with calf serum (10% v/v), penicillin and streptomycin. Medium was replenished every other day. Two days post-confluence, the cells were induced to differentiate using an adipogenic cocktail (1 μg/ml insulin, 0.5 mM isobutylmethylxanthine, and 1 μM dexamethasone) added to a basal medium (DMEM with 10% fetal bovine serum and penicillin/streptomycin). After 48 hrs, the first medium was replaced with a second induction medium consisting of the basal adipocyte medium supplemented with only insulin. […] This basal medium was replenished every other day during the remainder of the culture experiments.
(§2) Metabolite measurements were performed both on cell lysates and spent medium samples as described previously (Si Y, Yoon J, Lee K. American journal of physiology 2007; 292:E1637-46). Cells were lysed in situ with an 0.1% SDS buffer and sonicated. Immediately after collection, the spent medium samples were cleaned of cell debris by a brief centrifugation step. Free glycerol, TG and free fatty acids (FFAs) were measured using enzymatic assay kits (SIGMA™). Glucose and lactate concentrations were measured using the methods of Trinder (Trinder P. J Clin Pathol 1969; 22:158-61) and Loomis (Loomis M E. J Lab Clin Med 1961; 57:966-9), respectively. Amino acids were quantified by HPLC using fluorescence-based detection following pre-column derivatization of primary or secondary amines with 6-aminoquinolyl-N-hydroxysuccinimidyl-carbamate (Cohen S A, De Antonis K M. J Chromatogr A 1994; 661:25-34). All metabolite data were normalized by the corresponding cell sample DNA content, which was determined with a fluorescence-based assay using the Hoechst dye.

[3] = tested on: 3T3-L1 adipocytes; experiment: Amino acid uptake or output of adipocytes (HPLC of spent medium); settings: day 12 post-induction, positive value = uptake
Method: as §1, §2

## O=C(O)Cc1ccccc1 [phenylacetate]
[1]
  Reduction of oxygen consumption: 25%
[2]; 5 mM phenylacetate
  Increase of glucose uptake: 38%
  Increase of glycerol output: 1.2 fold
  Increase of lactate output: more than 2 fold
  Reduction of intracellular free fatty acid concentration: 9%
[2]; 10 mM phenylacetate
  Increase of glucose uptake: 28%
  Increase of glycerol output: 1.4 fold
  Increase of lactate output: more than 2 fold
  Reduction of intracellular free fatty acid concentration: 17%
[3]; 5 mM PA
  ALA uptake or output: 0.4 ± 0.1 mmol/g-DNA/2 days
  ASN uptake or output: −4.6 ± 0.2 mmol/g-DNA/2 days
  ASP uptake or output: 0.0 ± 0.0 mmol/g-DNA/2 days
  GLN uptake or output: −7.9 ± 0.6 mmol/g-DNA/2 days
  GLU uptake or output: 0.3 ± 0.0 mmol/g-DNA/2 days
  GLY uptake or output: −7.3 ± 0.2 mmol/g-DNA/2 days
  HIS uptake or output: −0.1 ± 0.1 mmol/g-DNA/2 days
  ILE uptake or output: 8.1 ± 0.3 mmol/g-DNA/2 days
  LEU uptake or output: 8.6 ± 0.3 mmol/g-DNA/2 days
  LYS uptake or output: −1.8 ± 0.1 mmol/g-DNA/2 days
  MET uptake or output: 0.1 ± 0.1 mmol/g-DNA/2 days
  PHE uptake or output: −0.1 ± 0.1 mmol/g-DNA/2 days
  PRO uptake or output: −1.4 ± 0.0 mmol/g-DNA/2 days
  SER uptake or output: 4.5 ± 0.2 mmol/g-DNA/2 days
  THR uptake or output: −1.2 ± 0.1^ mmol/g-DNA/2 days
  TYR uptake or output: 0.1 ± 0.2 mmol/g-DNA/2 days
  VAL uptake or output: 5.1 ± 0.4 mmol/g-DNA/2 days
[3]; 10 mM PA
  ALA uptake or output: −0.5 ± 0.1 mmol/g-DNA/2 days
  ASN uptake or output: −5.9 ± 0.4 mmol/g-DNA/2 days
  ASP uptake or output: 0.0 ± 0.0 mmol/g-DNA/2 days
  GLN uptake or output: 2.6 ± 2.9 mmol/g-DNA/2 days
  GLU uptake or output: 0.3 ± 0.0 mmol/g-DNA/2 days
  GLY uptake or output: −7.9 ± 0.9^ mmol/g-DNA/2 days
  HIS uptake or output: −0.1 ± 0.2 mmol/g-DNA/2 days
  ILE uptake or output: 7.5 ± 0.2 mmol/g-DNA/2 days
  LEU uptake or output: 7.9 ± 0.2 mmol/g-DNA/2 days
  LYS uptake or output: −2.0 ± 0.2 mmol/g-DNA/2 days
  MET uptake or output: 0.1 ± 0.2 mmol/g-DNA/2 days
  PHE uptake or output: −0.1 ± 0.4 mmol/g-DNA/2 days
  PRO uptake or output: −2.1 ± 0.2 mmol/g-DNA/2 days
  SER uptake or output: 4.6 ± 0.5 mmol/g-DNA/2 days
  THR uptake or output: −1.4 ± 0.4^ mmol/g-DNA/2 days
  TYR uptake or output: −0.0 ± 0.4 mmol/g-DNA/2 days
  VAL uptake or output: 3.8 ± 0.4 mmol/g-DNA/2 days
